Test results from patent publication US20160199436A1, “METHODS AND COMPOSITIONS FOR THE TREATMENT OF AMYOTROPHIC LATERAL SCLEROSIS” (University of Iowa Research Foudation, priority 2015, published 2016).
Entries after “also recorded” stand apart in the source; their conditions may differ.

Tests used:
SOD1 mice [1] = assay: Survival of SOD1 mice (ALS model), Kaplan Meier; type: in vivo, mouse
Excerpt: (§1) In this Example, SOD1 mice, a known and accepted model of amyotrophic lateral sclerosis (ALS), were used to assess the effects of angiotensin (1-7) peptides, here TXA127 (SEQ ID NO: 1), on survival and quality of life over time. The SOD1 mouse line are known to contain a G93A mutation in their superoxide dismutase 1 (SOD1) gene, and this mutation leads to a phenotype very similar to the phenotype of a human ALS sufferer.
(§2) A total of 70 mice were used in this study, 40 SOD1 mice and 30 wild type C57BL/6J mice (all were obtained from the Jackson Laboratories). Mice were three weeks old at the beginning of the study, and osmotic minipumps were implanted in each animal. After implantation, each animal was exposed to either 500 μg/kg/day TXA127 (SEQ ID NO: 1) or saline vehicle for up to 8 weeks. After 8 weeks, surviving mice received a daily injection of either 500 μg/kg TXA127 (SEQ ID NO: 1) or vehicle.

SOD1 mice [2] = assay: ALS score (disease progression/quality of life) in SOD1 mice; type: in vivo, mouse
Excerpt: as §1, §2
In addition to survival, disease progression/quality of life was measured over time using the rating scale described above. […] FIG. 3 further describes this effect, by showing the percentage of animals in each SOD1 group that were rated as having an ALS score of 2 or less over time.

[3] = 500 μg/kg/day TXA127 vs SOD1-vehicle, up to 30 weeks

Asp^1-Arg^2-Val^3-Tyr^4-Ile^5-His^6-Pro^7 [TXA127]
effect on survival (in words) (SOD1 mice [1]; 500 μg/kg/day TXA127): powerful survival benefit; also recorded: significant effect on survival | extension of life (median) versus vehicle treated SOD1 mice (SOD1 mice [1]; 500 μg/kg/day TXA127): 30 days | median survival (SOD1 mice [1]; 500 μg/kg/day TXA127 by osmotic minipump up to 8 weeks, then daily injection): 164 days | disease progression (summary in words) (SOD1 mice [2]; 500 μg/kg/day TXA127): delays disease progression | percentage of animals with an ALS score of 2 or less over time (FIG. 3) (SOD1 mice [2]; [3]): clearly delayed the worsening of symptoms, often by several weeks | sum of ALS scores over time (FIG. 2) (SOD1 mice [2]; [3]): significantly delaying worsening of symptoms
